The test system of one data set is HepG2-2.2.15 cells. The conditions noted are these: peptide 10 micrograms per ml, dye uptake assay, % cell control.
For another data set, the system named is MRC-5 cells. The following applies: human, 6 days.
A further data set deals with HCMV strain AD169. In words: HCMV plaque reduction assay in MRC-5 cells. The conditions noted are these: HCMV in MRC-5 cells; peptide 10 micrograms per ml; 7-10 days. Background: Plaque reduction counts the foci of infection that form in a cell layer.
A further data set deals with HIV-1IIIB. The experiment in a line: HIV-1 antiviral assay (CPE reduction, MTS). It counts as cell-based. The conditions noted are these: peptide 10 micrograms per ml, 6 days post-infection.
The next data set relates to CEM-SS cells. The experiment in a line: Cytotoxicity in HIV-1 assay (MTS cell viability). The conditions noted are these: CEM-SS cells, cells plus peptide only; peptide 10 micrograms per ml; MTS.

Regarding `Nc1ccn([C@@H]2CS[C@H](CO)O2)c(=O)n1` [3TC, Lamivudine, reference compound], the “% Cell viability” value with HepG2-2.2.15 cells worked out at 95.8%.
As for `Nc1nc(O)c2ncn(COC(CO)CO)c2n1` [Ganciclovir, reference compound], the “% Cell viability” value in the data set with MRC-5 cells is reported as 100%. The “% plaque reduction” value with HCMV strain AD169 is reported as 100%.
In the case of `Cc1cn([C@H]2C[C@H](N=[N+]=[N-])[C@@H](CO)O2)c(=O)[nH]c1=O` [AZT, reference compound], in the data set on HIV-1IIIB, the “% CPE reduction in HIV-1 infected CEM-SS cells” value stood at 99%. In addition, the “% Cell viability” value in the data set with CEM-SS cells is 97%.
In the case of `CC(C)(C)NC(=O)[C@@H]1CN(Cc2cccnc2)CCN1C[C@@H](O)C[C@@H](Cc1ccccc1)C(=O)N[C@H]1c2ccccc2C[C@H]1O` [Indinavir, indinavir], the “% CPE reduction in HIV-1 infected CEM-SS cells” value in the data set on HIV-1IIIB came out at 100%.

(Values after patent US20100204129A1, “USE OF A PEPTIDE AS A THERAPEUTIC AGENT” (priority 2008, published 2010).)
